Experimental data published in the supplement of paper PMC10307832.

How the values were obtained:
Test in all cases: relative viability (nuclei count vs DMSO), 5 days (fraction); higher = more cells survive
Obatoclax + Alpelisib = compound: COC1=CC(c2cc3ccccc3[nH]2)=N/C1=C\c1[nH]c(C)cc1C [Obatoclax] + Cc1nc(NC(=O)N2CCC[C@H]2C(N)=O)sc1-c1ccnc(C(C)(C)C(F)(F)F)c1 [Alpelisib] (partner 2 µM)
Method in brief: (§1)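 Dosing by pin tool came one day after lung cancer cell lines were seeded in 1536-well plates, using either one drug or a fixed anchor-drug dose plus five library-drug doses (not always all listed) in √10 steps. After 5 days, nuclei were counted on 4× images. Relative viability is treated-well nuclei count divided by vehicle-well nuclei count, and values are medians of duplicate plates.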

[1] = compound: CC1=CC(=NN1)NC2=CC(=NC(=N2)/C=C/C3=CC=CC=C3)N4CCN(CC4)C + NC(=O)Nc1cc(-c2cccc(F)c2)sc1C(=O)N[C@H]1CCCNC1 [AZD7762] (partner 0.2 µM)
Method in brief: as §1

Bortezomib + Linsitinib = compound: CC(C)C[C@H](NC(=O)[C@H](Cc1ccccc1)NC(=O)c1cnccn1)B(O)O [Bortezomib] + C[C@]1(O)C[C@@H](c2nc(-c3ccc4ccc(-c5ccccc5)nc4c3)c3c(N)nccn32)C1 [Linsitinib] (partner 1 µM)
Method in brief: as §1

Obatoclax + Foretinib = compound: COC1=CC(c2cc3ccccc3[nH]2)=N/C1=C\c1[nH]c(C)cc1C [Obatoclax] + COc1cc2c(Oc3ccc(NC(=O)C4(C(=O)Nc5ccc(F)cc5)CC4)cc3F)ccnc2cc1OCCCN1CCOCC1 [Foretinib] (partner 0.25 µM)
Method in brief: as §1

Cell Line | relative viability (Obatoclax + Alpelisib; first compound 0.01 µM) | relative viability (Obatoclax + Alpelisib; first compound 0.03162 µM) | relative viability (Obatoclax + Alpelisib; first compound 0.1 µM) | relative viability (Obatoclax + Alpelisib; first compound 0.3162 µM) | relative viability (Obatoclax + Alpelisib; first compound 1 µM) | relative viability ([1]; first compound 0.08 µM) | relative viability ([1]; first compound 0.253 µM) | relative viability ([1]; first compound 0.8 µM) | relative viability ([1]; first compound 2.53 µM) | relative viability ([1]; first compound 8 µM) | relative viability (Bortezomib + Linsitinib; first compound 0.0002 µM) | relative viability (Bortezomib + Linsitinib; first compound 0.000632 µM) | relative viability (Bortezomib + Linsitinib; first compound 0.002 µM) | relative viability (Bortezomib + Linsitinib; first compound 0.006325 µM) | relative viability (Bortezomib + Linsitinib; first compound 0.02 µM) | relative viability (Obatoclax + Foretinib; first compound 0.01 µM) | relative viability (Obatoclax + Foretinib; first compound 0.03162 µM) | relative viability (Obatoclax + Foretinib; first compound 0.1 µM) | relative viability (Obatoclax + Foretinib; first compound 0.3162 µM) | relative viability (Obatoclax + Foretinib; first compound 1 µM)
HCC-44 | 0.84 | 0.706 | 0.801 | 0.607 | 0.21 | 1.02 | 1.03 | 1.01 | 1.01 | 0.844 | 0.618 | 0.61 | 0.515 | 0.19 | 0.113 |  |  |  |  | 
IA-LM | 0.843 | 0.743 | 0.612 | 0.327 | 0.0686 |  |  |  |  |  | 0.907 | 0.682 | 0.577 | 0.161 | 0.0151 | 1.17 | 1.18 | 1.03 | 0.624 | 0.0739
NCI-H520 | 0.901 | 0.953 | 0.92 | 0.7 | 0.835 |  |  |  |  |  | 1.12 | 0.991 | 0.483 | 0.137 | 0.143 | 0.825 | 0.727 | 0.944 | 0.668 | 0.609
NCI-H522 |  |  |  |  |  | 0.859 | 0.934 | 0.933 | 0.516 | 0.587 |  |  |  |  |  |  |  |  |  | 
NCI-H661 | 0.643 | 0.507 | 0.261 | 0.458 | 0.84 |  |  |  |  |  | 0.62 | 0.552 | 0.46 | 0.311 | 0.181 | 0.977 | 1.03 | 1.05 | 0.936 | 0.763
NCI-H1299 | 1.01 | 1.1 | 0.985 | 1.04 | 1 |  |  |  |  |  | 1 | 0.917 | 1.1 | 0.452 | 0.118 | 1.08 | 1.12 | 1.08 | 1.08 | 1.05
NCI-H1563 | 0.917 | 0.922 | 0.934 | 0.867 | 0.791 |  |  |  |  |  | 1.25 | 1.25 | 1.02 | 0.534 | 0.466 | 0.903 | 0.91 | 1.04 | 0.824 | 0.806
NCI-H1623 |  |  |  |  |  |  |  |  |  |  |  |  |  |  |  | 0.95 | 0.81 | 0.984 | 0.839 | 0.896
NCI-H1648 |  |  |  |  |  | 0.578 | 0.691 | 0.663 | 0.626 | 0.513 |  |  |  |  |  |  |  |  |  | 
NCI-H1650 |  |  |  |  |  |  |  |  |  |  |  |  |  |  |  | 1.12 | 1.06 | 1.18 | 0.91 | 0.558
NCI-H1792 | 0.746 | 0.658 |  | 0.638 | 0.781 | 0.659 | 0.732 | 0.665 | 0.132 | 0.0222 | 0.526 | 0.594 | 0.352 | 0.537 | 0.221 |  |  |  |  | 
NCI-H2009 | 1.08 | 1.16 | 1.19 | 1.13 | 0.286 |  |  |  |  |  | 1.12 | 1.22 | 1.18 | 0.0695 | 0.058 | 1.24 | 1.25 | 1.23 | 0.477 | 0.333
NCI-H2023 | 0.603 | 0.667 | 0.578 | 0.605 | 0.334 |  |  |  |  |  | 0.68 | 0.723 | 0.711 | 0.102 | 0.0845 | 0.944 | 0.841 | 0.804 | 0.804 | 0.316
NCI-H2170 | 0.777 | 0.749 | 0.825 | 0.724 | 0.683 | 0.875 | 0.971 | 0.556 | 0.243 | 0.114 |  |  |  |  |  | 1 | 1.02 | 0.996 | 1.02 | 0.975
NCI-H2228 | 0.662 | 0.601 | 0.629 | 0.436 | 0.27 |  |  |  |  |  | 0.671 | 0.717 | 0.506 | 0.157 | 0.133 | 0.851 | 0.867 | 0.861 | 0.759 | 0.511
NCI-H2342 |  |  |  |  |  | 0.368 | 0.535 | 0.589 | 0.371 | 0.256 |  |  |  |  |  | 1.05 | 0.947 | 1.09 | 1.04 | 1.03
SK-LU-1 | 0.825 | 0.984 | 0.779 | 0.355 | 0.29 |  |  |  |  |  | 0.986 | 1.04 | 1.42 | 0.174 | 0.159 | 0.775 | 0.855 | 0.804 | 0.409 | 0.357
SK-MES-1 | 0.828 | 0.785 | 1.01 | 0.824 | 0.645 |  |  |  |  |  | 1.08 | 1.06 | 1.1 | 0.54 | 0.189 | 0.935 | 1.03 | 0.831 | 0.833 | 0.867
SW 900 |  |  |  |  |  | 0.534 | 0.526 | 0.649 | 0.314 | 0.104 |  |  |  |  |  | 0.895 | 0.743 | 0.759 | 0.536 | 0.738
SW 1573 | 0.789 | 0.701 | 0.946 | 0.672 | 0.556 |  |  |  |  |  | 0.663 | 0.775 | 0.766 | 0.144 | 0.0774 | 0.866 | 0.732 | 0.816 | 0.81 | 0.6
UMC-11 | 0.954 | 0.892 | 1.03 | 0.584 | 0.442 |  |  |  |  |  | 0.937 | 0.974 | 0.936 | 0.375 | 0.176 | 1.07 | 1.08 | 1.05 | 0.716 | 0.382
